Measured values taken from patent US20040022780A1, “Serine protease and topical retinoid compositions useful for treatment of acne vulgarise and production of anti-aging effects” (priority 1997, published 2004).

System: Rhino mouse skin
Assay: Histology after suboptimal trypsin, all-trans retinoic acid or both
Type: in vivo
Conditions: suboptimal dose alone: 0.005% (w/v) trypsin or 0.0005% (w/v) all-trans retinoic acid
Procedure: A first set of Rhino mice of Example 1 were treated with suboptimal doses of the trypsin composition of Example 2. […] A second set of Rhino mice of Example 1 were treated with suboptimal concentrations of the all-trans retinoic acid composition of Example 2. A third set of Rhino mice of Example 1 were treated with both suboptimal doses of the trypsin composition of Example 2 and the all-trans retinoic acid composition of Example 2. In this third set of Rhino mice, the trypsin and all-trans retinoic acid treatments were each administered daily, but at different times (i.e. trypsin in the morning and all-trans retinoic acid in the afternoon). Mice were sacrificed and their skins were examined histologically with the procedure set forth in Example 3.

## CC1=C(/C=C/C(C)=C/C=C/C(C)=C/C(=O)O)C(C)(C)CCC1 [all-trans retinoic acid, reference compound]
  skin histology of treatment given alone vs untreated skin: marked inprovement
